According to publication PMC5000617, “Antiproliferative and Pro-Apoptotic Effect of Novel Nitro-Substituted Hydroxynaphthanilides on Human Cancer Cell Lines” (International Journal of Molecular Sciences, 2016):

Key:
[1] = tested on: cyclin B1; assay: Western blot of cyclin B1 in THP-1 cells; type: cell-based, human; conditions: THP-1, 24 h
Protocol: (§1) Additionally, the cell cycle analysis allows determining the presence of a subdiploid cell population as a characteristic marker of cells with fractional DNA content. A significant increase (p < 0.001) of the sub-G1 peak was found only after the treatment with 5 µM of compound 2 in THP-1 cells, where an approximately eight-fold increase was observed compared to the drug-free control (Figure 4).
(§2) For Western blotting, cells were washed with PBS and lysed in lysis buffer (100 mM Tris-HCl, pH = 6.8; 20% glycerol; 1% SDS) containing protease and phosphatase inhibitor cocktails. Protein concentration was measured using Roti®-Quant universal (Carl Roth, Karsruhe, Germany) according to the manufacturer’s instructions. Cell lysates were supplemented with bromophenol blue (final concentration 0.01% (w/v)) and β-mercaptoethanol (final concentration 1% (v/v)) prior to being heated for 5 min at 95 °C. Equal amounts of protein (10 μg) were loaded into a 12% polyacrylamide gel, separated by SDS-polyacrylamide gel electrophoresis and subsequently electrotransferred onto nitrocellulose membranes. Reversible Ponceau S. staining was performed to assess equal sample loading. […] The intensity of bands was semi-quantitatively analysed using the ImageJ software (National Institute of Mental Health, Bethesda, MD, USA).

[2] = Annexin V-FITC/PI apoptosis assay by flow cytometry, THP-1; type: cell-based, human; conditions: human, THP-1 cells, representative dot plot, read-out: quadrant I: viable cells
Protocol: (§3) Staining of cells by Annexin V-FITC conjugate reflects the externalization of phosphatidylserine on the outer surface of the cell membrane as one of the early indicators of apoptosis.
(§4) Early and late stages of apoptosis were detected using Annexin V-FITC Kit—Apoptosis Detection Kit faccording to the manufacturer´s instructions. […] At each time-point of incubation (12, 18, and 24 h) the cells were washed with ice-cold PBS prior to being resuspended at a concentration of 5 × 10^6 cells/mL in a total volume of 100 μL of 1× binding buffer. Annexin V-FITC solution (final concentration 0.25 μg/mL) and PI (final concentration 12.5 μg/mL) were added to each sample; the cell suspension was kept on ice and incubated for 15 min in the dark. After that, the analysis was carried out by flow cytometry. The data were evaluated using Kaluza Flow Cytometry Analysis 1.2. Per sample, a total number of 2 × 10^4 cells were analysed.

[3] = tested on: THP-1 cells; assay: as above; type: cell-based, human
Protocol: as §3, §4

[4] = tested on: 3T3-L1 cells; assay: WST-1 cell proliferation assay, 3T3-L1 non-tumour cells; type: cell-based, mouse
Protocol: (§5) THP-1 human monocytic leukemia cell line, MCF-7 human breast adenocarcinoma cells and 3T3-L1 mouse embryonic fibroblast were purchased from the European Collection of Cell Cultures (ECACC, Salisbury, UK). Cells were routinely tested for the absence of mycoplasma (Hoechst 33258 staining method). THP-1 cells were maintained in RPMI 1640 culture medium containing 2 mM L-glutamine; MCF-7 and 3T3-L1 cells were cultured in DMEM medium. All of the culture media were supplemented with 10% heat-inactivated FBS and antibiotics (100 U/mL penicillin and 100 μg/mL streptomycin). Cells were maintained at 37 °C in a humidified atmosphere containing 5% CO2.
(§6) Cell proliferation was evaluated using Cell Proliferation Reagent WST-1 (2-(4-iodophenyl)-3-(4-nitrophenyl)-5-(2,4-disulfophenyl)-2H-tetrazolium) (Roche Diagnostics, Mannheim, Germany) according to the manufacturer´s instructions. THP-1 (5 × 10^4 cells/100 μL culture medium per well), MCF-7 cells (1 × 10^4 cells/100 μL per well), and 3T3-L1 (2.5 × 10^3 cells/100 μL per well) were cultured in 96-well plates in triplicate. The measurement was performed using Synergy 2 Multi-Mode Microplate Reader (BioTek, Winooski, VT, USA) after 24 h incubation of cells with tested compounds dissolved in DMSO and subsequently in RPMI 1640 to final concentration ranging 0.5–20 μM in the assays. Cell viability was assessed by dye exclusion test. THP-1 (2 × 10^5 cells/mL per well) and MCF-7 cells (8 × 10^4 cells/mL per well) were incubated in 24-well plates with the indicated concentrations of compounds for 24 h. The number of viable cells was determined using hemocytometer after their staining with a solution of erythrosin B (0.1% erythrosin B (w/v) in PBS). The assays were conducted in triplicate. The IC50 and LC50 values were calculated from fitted concentration-response curves using GraphPad Prism 5.00 software (GraphPad Software, San Diego, CA, USA).

[5] = tested on: cyclin E1; assay: Western blot of cyclin E1 in MCF-7 cells; type: cell-based, human; conditions: MCF-7, 24 h
Protocol: as §1, §2

[6] = Erythrosin B dye exclusion viability test, THP-1; type: cell-based; conditions: human, THP-1 cells; erythrosin B exclusion test, 24 h, mean ± SD; read-out: THP-1 LC50
Protocol: (§7) Subsequently, for the comparison of the antiproliferative and cytotoxic effects we assessed the cell viability after 24 h treatment with compounds 1–6 in both tumour cell lines using the dye exclusion test.
as §5, §6

[7] = tested on: THP-1 cells; assay: Erythrosin B dye exclusion viability test, THP-1; type: cell-based
Protocol: as §7, §5, §6

[8] = tested on: cyclin E1; assay: Western blot of cyclin E1 in THP-1 cells; type: cell-based, human; conditions: THP-1, 24 h
Protocol: as §1
For Western blotting, cells were washed with PBS and lysed in lysis buffer (100 mM Tris-HCl, pH = 6.8; 20% glycerol; 1% SDS) containing protease and phosphatase inhibitor cocktails. Protein concentration was measured using Roti®-Quant universal (Carl Roth, Karsruhe, Germany) according to the manufacturer’s instructions. Cell lysates were supplemented with bromophenol blue (final concentration 0.01% (w/v)) and β-mercaptoethanol (final concentration 1% (v/v)) prior to being heated for 5 min at 95 °C. Equal amounts of protein (10 μg) were loaded into a 12% polyacrylamide gel, separated by SDS-polyacrylamide gel electrophoresis and subsequently electrotransferred onto nitrocellulose membranes. Reversible Ponceau S. staining was performed to assess equal sample loading. Then, the membranes were blocked with 5% non-fat dry milk in TBST (10 mM Tris-HCl pH = 7.5, 150 mM NaCl, 0.1% (v/v) Tween-20) and appropriate primary and secondary antibodies were used for immunodetection. The proteins were visualized by ECL Plus reagent according to the manufacturer’s instructions. The intensity of bands was semi-quantitatively analysed using the ImageJ software (National Institute of Mental Health, Bethesda, MD, USA).

[9] = tested on: MCF-7 cells; assay: WST-1 cell proliferation assay, MCF-7; type: cell-based, human
Protocol: Initially, we examined the effect of six nitro-substituted hydroxynaphthanilides on the proliferation of human leukaemia and breast carcinoma cell lines, using Water Soluble Tetrazolium Salts-1 (WST-1) assay. For such analyses, THP-1 and MCF-7 cells were treated with the compounds at concentrations ranging from 0.5 to 20 μM for 24 h. […] The inhibitory effect of 2 and 6 was statistically significant (p < 0.001) starting from the concentration of 2.5 and 5 μM in THP-1 and MCF-7 cells, respectively. From the concentration-response curves, the IC50 values were determined.
as §5, §6

[10] = tested on: cyclin B1; assay: Western blot of cyclin B1 in MCF-7 cells; type: cell-based, human; conditions: MCF-7, 24 h
Protocol: as §1, §2

For `O=C(Nc1cccc([N+](=O)[O-])c1)c1cc2ccccc2cc1O` [Compound 2, 3-hydroxy-N-(3-nitrophenyl)naphthalene-2-carboxamide], the “total protein levels of cyclin B1” value [1] was “total protein levels of cyclin B1 were not changed”, the viability at 12 h, 2.5 µM ([2]; THP-1, 2.5 μM, 12 h) was 92.1% and the viability at 18 h, 2.5 µM ([2]; THP-1, 2.5 μM, 18 h) was 90.2%. For the same compound, the viability at 24 h, 2.5 µM ([2]; THP-1, 2.5 μM, 24 h) was 87.8%, the viability at 12 h, 5 µM ([2]; THP-1, 5 μM, 12 h) was 85.8% and the viability at 18 h, 5 µM ([2]; THP-1, 5 μM, 18 h) was 76.7%. For the same compound, the viability at 24 h, 5 µM ([2]; THP-1, 5 μM, 24 h) was 75.7%, the viability at 12 h, 10 µM ([2]; THP-1, 10 μM, 12 h) was 64.9% and the viability at 18 h, 10 µM ([2]; THP-1, 10 μM, 18 h) was 57.2%. The viability at 24 h, 10 µM ([2]; THP-1, 10 μM, 24 h) was 44.6%, the “double-stained (late apoptotic/secondary necrotic) cells” value ([3]; THP-1, 10 µM, 12 h, mean) was 22.48% and the “proportion of early apoptotic cells” value ([3]; THP-1, 10 µM, 12 h, mean, control 2.41%) was 9.37%. The “double-stained (late apoptotic/secondary necrotic) cells” value ([3]; THP-1, 10 µM, 24 h, mean) was 41.88%, the “pro-apoptotic effect” value ([3]; THP-1, 2.5, 5, 10 µM, 12, 18, 24 h) was “induced a dose-dependent increase of the percentage of early apoptotic as well as late apoptotic/secondary necrotic” and the “effect on cell proliferation” value ([4]; 3T3-L1, 24 h) was “did not decrease cell growth at any of concentrations used”. The IC50 ([4]; Mus musculus, 3T3-L1, WST-1, 24 h, non-tumour cells, mean ± SD) was over 20 µM, the “expression of cyclin E1” value [5] was “dose-dependent decrease in expression of cyclin E1” and the CC50 at 24 h [6] was 7.91 ± 0.24 µM. The “LC50 compared to IC50” value [7] was 2–3 fold, the “expression of cyclin E1” value [8] was “dose-dependent decrease in expression of cyclin E1” and the “levels of cyclin E1 low molecular weight (LMW E1) isoform” value [8] was “more pronounced reduction of LMW E1 isoform levels”. The IC50 ([9]; Homo sapiens, MCF7, WST-1, 24 h, 0.5-20 μM, mean ± SD) was 4.61 ± 0.068 µM, the “effect on cell proliferation” value ([9]; MCF-7, 0.5-20 μM, 24 h) was “inhibit cell growth in both cell lines in a dose-dependent manner” and the “concentration from which the inhibitory effect on proliferation was statistically significant (p < 0.001)” value ([9]; MCF-7, 24 h) was 5 µM. The “total protein levels of cyclin B1” value [10] was “total protein levels of cyclin B1 were not changed”.
